Results on one molecule are retold here after patent US20100298245A1, “Pharmaceutical Composition for the Treatment of IL-8 mediated diseases” (Revotar Biopharmaceuticals AG, priority 2007, published 2010).

The test system of this experiment is Interleukin 8 (IL-8). Put plainly: Human clinical trial in COPD patients: IL-8 level in induced sputum supernatant (enzyme immunoassay). It is filed as in vivo. How it is done:
A human clinical trial (trial) was conducted to investigate effects of the disodium salt of compound of formula (I) (1,6-Bis [3-(3-carboxymethylphenyl)-4-(2-α-D-mannopyranosyloxy)-phenyl] hexan) on patients with chronic obstructive pulmonary disease (COPD). The trial was carried out according to known methods and according to the “good clinical practices” (GCP), applicable regulatory requirements, and was based on written approval of the Independent Ethics Committee (IEC). Patients were enrolled in the trial based on inclusion and exclusion criteria known.
Patients were treated by inhalation of the disodium salt of the compound of formula (I) for 10 days. The unit dose strength for nebulization was 70 mg in 4 ml of 0.9% NaCl twice a day (bid). To investigate laboratory parameters the procedure of induced sputum (IS) was used to harvest cells and sputum supernatant for further analysis.
To investigate levels of Interleukin 8 (IL-8) in the sputum supernatant, sputum was frozen after collection. Once, all samples were collected, levels of IL-8 were analyzed by using a commercial available enzyme immunoassay for the in vitro quantification of human IL-8 in biological fluids. IL-8 sample concentrations were determined employing calibration curves.

In the case of `O=C(O)Cc1cccc(-c2cc(CCCCCCc3ccc(O[C@H]4O[C@H](CO)[C@@H](O)[C@H](O)[C@@H]4O)c(-c4cccc(CC(=O)O)c4)c3)ccc2O[C@H]2O[C@H](CO)[C@@H](O)[C@H](O)[C@@H]2O)c1` [compound of formula (I), 1,6-Bis [3-(3-carboxymethylphenyl)-4-(2-α-D-mannopyranosyloxy)-phenyl] hexane], under “COPD patients, induced sputum supernatant, after inhalation of disodium salt 70 mg in 4 ml 0.9% NaCl bid for 10 days, Mann-Whitney Rank Sum Test p=0.031 vs before”, the “median value of levels of IL8 in sputum supernatant after treatment” value was 4985 pg/mL. In addition, the “median value of levels of IL8 in sputum supernatant before treatment” value (COPD patients, induced sputum supernatant, baseline before inhalation treatment) stood at 15419 pg/mL. Besides, the “change of the IL-8 medians” value (after vs before treatment, inhalation 70 mg bid for 10 days, statistically significant (p=0.031) and clinically relevant) is −68%.
